{"source": "paper PMC9057582", "about": "“HIF inhibitor 32-134D eradicates murine hepatocellular carcinoma in combination with anti-PD1 therapy” (The Journal of Clinical Investigation, 2022)", "key": {"[1]": {"test": "Hematologic indices, serum EPO and organ histology in mice", "type": "in vivo, C57BL/6J mice", "conditions": "14 days", "experimental": "To investigate the effect of 32-134D on erythropoiesis, C57BL/6J mice (n = 4 per group) received a daily intraperitoneal injection of vehicle or 32-134D at a dose of 40 or 80 mg/kg/day for 14 days.\nFigure 8 Effect of 32-134D on red blood cell indices. Mice (n = 4 per group) were treated with vehicle (V) or 32-134D (40 mg/kg/day) for 14 days and peripheral blood was analyzed for red blood cell count (RBC), hemoglobin (Hgb), hematocrit (Hct), reticulocytes, mean corpuscular hemoglobin (MCH), mean corpuscular hemoglobin concentration (MCHC), mean corpuscular volume (MCV), and absolute reticulocyte count (A) or EPO levels in serum (B).\nTo analyze blood parameters, male C57BL/6J mice were treated with vehicle or 32-134D by daily intraperitoneal injection for 14 days. Blood was collected by cardiac puncture into EDTA-coated tubes for analysis of hematologic indices at the Johns Hopkins Mouse Phenotyping Core. Blood collected into noncoated tubes was allowed to clot for 2 hours at room temperature, centrifuged at 2000g for 20 minutes, and serum samples were subjected to EPO ELISA according to the manufacturer’s instructions (Supplemental Table 6). Organs including heart, liver, kidney, small intestine, colon, lungs, and brain were harvested, fixed in formalin for 24 hours, and embedded in paraffin for histopathological investigation. Hematoxylin and eosin staining was performed by the Johns Hopkins Reference Histology Services.\nSupplemental Figure 9. Normal organ histology in mice treated with 32-134D. Mice were administered vehicle or 32-134D (40 or 80 mg/kg) by daily intraperitoneal injection for 14 days and tissue sections from the indicated organs were stained with hematoxylin and eosin. Scale bar = 20 µm.\n(1 picture or pasted object on this page, not shown here)"}, "[2]": {"system": "HIF-1, HIF-2 and p300 recruitment to HREs", "test": "ChIP-qPCR of HRE occupancy in Hep3B cells", "type": "cell-based, human", "conditions": "16 hours, 5 µM 32-134D or 10 µM PT2385", "experimental": "Coadministration of the proteasome inhibitor MG-132 blocked the effect of 32-134D on HIF-1α protein levels (Figure 1H). […] Taken together, the results presented in Figure 1 and Supplemental Figures 1–3 indicate that 32-134D induces HIF-α subunit degradation, thereby inhibiting activation of HIF-1 and HIF-2 target gene transcription.\nCells were seeded overnight and then exposed to 20% or 1% O2 in the presence of compound or vehicle for 16 hours. Protein was cross-linked to DNA by addition of 37% formaldehyde to culture medium for 10 minutes at 37°C and quenched by addition of 0.1 M glycine. Cells were washed with and collected in 5 mL of cold PBS containing PIs. Cells were pelleted and resuspended in 200 μL of SDS lysis buffer (50 mM Tris-HCl [pH 8.1], 10 mM EDTA, 1% SDS) containing PIs and incubated on ice for 10 minutes. Lysates were sonicated to produce DNA fragments ranging from 200 to 900 bp and centrifuged for 10 minutes at 4°C. Supernatants were collected and diluted 10-fold with dilution buffer (16.7 mM Tris-HCl [pH 8.1], 167 mM NaCl, 1.2 mM EDTA, 0.01% SDS, 1.1% Triton X-100) with PIs, precleared with 20 μL of salmon sperm DNA/protein A agarose slurry, and a 20-μL aliquot was reserved as input control. Antibody (2 μg; see Supplemental Table 6) was added and samples were rotated overnight at 4°C. Immune complexes were precipitated with 50 μL of salmon sperm DNA/protein A agarose slurry. Pelleted beads were washed serially using low-salt wash buffer (20 mM Tris-HCl [pH 8.1], 150 mM NaCl, 2 mM EDTA, 0.1% SDS, 1% Triton X-100); high-salt wash buffer (20 mM Tris-HCl [pH 8.1], 500 mM NaCl, 2 mM EDTA, 0.1% SDS, 1% Triton X-100); LiCl wash buffer (10 mM Tris-HCl [pH 8.1], 0.25 M LiCl, 1% Nonidet P-40, 1% deoxycholate, 1 mM EDTA); and TE buffer (10 mM Tris-HCl [pH 8.1], 1 mM EDTA). Elution buffer (1% SDS, 0.1 M NaHCO3) was added and eluates were heated at 65°C overnight to reverse cross-linking. Eluates were treated with proteinase K for 1 hour at 45°C and DNA was purified by extraction in phenol/chloroform/isoamyl alcohol (25:24:1, v/v/v) and isopropanol precipitation. […]"}}}
{"smiles": "Brc1ccc2c(-c3csc(-c4c[nH]c5c(Br)cccc45)n3)c[nH]c2c1", "note": "[Compound 32-134D]", "values": [{"measurement": "histology of brain, colon, heart, kidney, liver, lungs, and small intestine", "setting": "[1]; 40 or 80 mg/kg ip", "result": "no changes"}, {"measurement": "red blood cell count, hemoglobin, hematocrit, reticulocyte count, MCV, MCH, MCHC versus vehicle", "setting": "[1]; 40 or 80 mg/kg/day ip", "result": "not significantly different"}, {"measurement": "serum EPO levels versus vehicle", "setting": "[1]; ELISA", "result": "no significant difference"}, {"measurement": "hypoxia-induced recruitment of HIFs and p300 to EPO and ANGPTL4 HREs", "setting": "[2]", "result": "impaired"}, {"measurement": "hypoxia-induced recruitment of HIFs and p300 to the CA9 HRE", "setting": "[2]", "result": "impaired"}]}
